From BindingDB's records for doi:10.1021/jm300025r (Astrazeneca, 2012)

How the values were obtained:
[1] = Inhibition of CHK1 in human HT29 cells assessed as abrogation of camptothecin induced check point
[2] = Inhibition of CHK1 in human HT29 cells assessed as check point abrogation

| SMILES | EC50 [1] | EC50 [2] |
| --- | --- | --- |
| N#Cc1cccc(-c2cc(NC(N)=O)c(C(=O)N[C@H]3CCCNC3)s2)c1 | 0.04 µM | 1.9 µM |
| N#Cc1cccc(-c2cc(C(=O)N[C@H]3CCCNC3)c(NC(N)=O)s2)c1 | 0.94 µM | > 13 µM |
| NC(=O)Nc1cc(-c2ccc(F)cc2F)sc1C(=O)N[C@H]1CCCNC1 | 0.02 µM | 1.1 µM |
| NC(=O)Nc1sc(-c2ccc(F)cc2F)cc1C(=O)N[C@H]1CCCNC1 | 0.19 µM | 1.4 µM |
| NC(=O)Nc1sc(-c2cccc(F)c2F)cc1C(=O)N[C@H]1CCCNC1 | 0.1 µM | 1.8 µM |
| NC(=O)Nc1sc(-c2ccccc2F)cc1C(=O)N[C@H]1CCCNC1 [1-(3-((S)-piperidin-3-ylcarbamoyl)-5-(2-fluorophenyl)thiophen-2-yl)urea] | 0.08 µM | 1.06 µM |
| NC(=O)Nc1sc(-c2cccc(Cl)c2)cc1C(=O)N[C@H]1CCCNC1 [1-(3-((S)-piperidin-3-ylcarbamoyl)-5-(3-chlorophenyl)thiophen-2-yl)urea] | 0.04 µM | 1.2 µM |
| NC(=O)Nc1sc(-c2cccc(F)c2)cc1C(=O)N[C@H]1CCCNC1 [1-(3-((S)-piperidin-3-ylcarbamoyl)-5-(3-fluorophenyl)thiophen-2-yl)urea] | 0.02 µM | 0.84 µM |
| NC(=O)Nc1sc(-c2ccc(F)cc2)cc1C(=O)N[C@H]1CCCNC1 [(S)-1-(5-(4-fluorophenyl)-3-(piperidin-3-ylcarbamoyl)thiophen-2-yl)urea] | 0.03 µM | 0.6 µM |

The next lines start with the values.

| EC50 [1] | EC50 [2] | SMILES |
| --- | --- | --- |
| 0.03 µM | 0.6 µM | N#Cc1ccc(-c2cc(NC(N)=O)c(C(=O)N[C@H]3CCCNC3)s2)cc1 |
| 0.2 µM | 5.8 µM | NC(=O)Nc1cc(-c2ccc(Cl)c(Cl)c2)sc1C(=O)N[C@H]1CCCNC1 |
| 0.15 µM | 5.7 µM | NC(=O)Nc1sc(-c2ccc(Cl)c(Cl)c2)cc1C(=O)N[C@H]1CCCNC1 |
| 0.06 µM | 1.5 µM | NC(=O)Nc1cc(-c2cccc(F)c2F)sc1C(=O)N[C@H]1CCCNC1 |
| 0.06 µM | 2.5 µM | NC(=O)Nc1cc(-c2cc(F)cc(F)c2)sc1C(=O)N[C@H]1CCCNC1 |
| 0.03 µM | 1.5 µM | NC(=O)Nc1sc(-c2cc(F)cc(F)c2)cc1C(=O)N[C@H]1CCCNC1 |
| 0.01 µM | 0.7 µM | NC(=O)Nc1cc(-c2cccc(Cl)c2)sc1C(=O)N[C@H]1CCCNC1 |
| 0.02 µM | 13 µM | NC(=O)Nc1cc(-c2ccc(F)cc2)sc1C(=O)N[C@H]1CCCNC1 |
| 0.02 µM | 2.2 µM | NC(=O)Nc1cc(-c2ccccc2F)sc1C(=O)N[C@H]1CCCNC1 |
| 0.02 µM | 0.59 µM | NC(=O)Nc1cc(-c2ccccc2)sc1C(=O)N[C@H]1CCCNC1 |
| 0.008 µM | 1.7 µM | N#Cc1ccc(-c2cc(C(=O)N[C@H]3CCCNC3)c(NC(N)=O)s2)cc1 [(S)-1-(5-(4-cyanophenyl)-3-(piperidin-3-ylcarbamoyl)thiophen-2-yl)urea] |
